According to ChEMBL document CHEMBL2424515, “Identification of novel substrates and structure-activity relationship of cellular uptake mediated by human organic cation transporters 1 and 2” (J Med Chem, 2013):

B1: Solute carrier family 22 member 1 (Homo sapiens) (protein)
chain: MPTVDDILEQVGESGWFQKQAFLILCLLSAAFAPICVGIVFLGFTPDHHCQSPGVAELSQRCGWSPAEELNYTVPGLGPAGEAFLGQCRRYEVDWNQSALSCVDPLASLATNRSHLPLGPCQDGWVYDTPGSSIVTEFNLVCADSWKLDLFQSCLNAGFLFGSLGVGYFADRFGRKLCLLGTVLVNAVSGVLMAFSPNYMSMLLFRLLQGLVSKGNWMAGYTLITEFVGSGSRRTVAIMYQMAFTVGLVALTGLAYALPHWRWLQLAVSLPTFLFLLYYWCVPESPRWLLSQKRNTEAIKIMDHIAQKNGKLPPADLKMLSLEEDVTEKLSPSFADLFRTPRLRKRTFILMYLWFTDSVLYQGLILHMGATSGNLYLDFLYSALVEIPGAFIALITIDRVGRIYPMAMSNLLAGAACLVMIFISPDLHWLNIIIMCVGRMGITIAIQMICLVNAELYPTFVRNLGVMVCSSLCDIGGIITPFIVFRLREVWQALPLILFAVLGLLAAGVTLLLPETKGVALPETMKDAENLGRKAKPKENTIYLKVQTSEPSGT
B2: Solute carrier family 22 member 2 (Homo sapiens) (protein)
chain: MPTTVDDVLEHGGEFHFFQKQMFFLLALLSATFAPIYVGIVFLGFTPDHRCRSPGVAELSLRCGWSPAEELNYTVPGPGPAGEASPRQCRRYEVDWNQSTFDCVDPLASLDTNRSRLPLGPCRDGWVYETPGSSIVTEFNLVCANSWMLDLFQSSVNVGFFIGSMSIGYIADRFGRKLCLLTTVLINAAAGVLMAISPTYTWMLIFRLIQGLVSKAGWLIGYILITEFVGRRYRRTVGIFYQVAYTVGLLVLAGVAYALPHWRWLQFTVSLPNFFFLLYYWCIPESPRWLISQNKNAEAMRIIKHIAKKNGKSLPASLQRLRLEEETGKKLNPSFLDLVRTPQIRKHTMILMYNWFTSSVLYQGLIMHMGLAGDNIYLDFFYSALVEFPAAFMIILTIDRIGRRYPWAASNMVAGAACLASVFIPGDLQWLKIIISCLGRMGITMAYEIVCLVNAELYPTFIRNLGVHICSSMCDIGGIITPFLVYRLTNIWLELPLMVFGVLGLVAGGLVLLLPETKGKALPETIEEAENMQRPRKNKEKMIYLQVQKLDIPLN

Key:
OCT2 (SLC22A2) = biological target: T1, OCT2 (SLC22A2) (Homo sapiens, UniProt O15244); assay: Cellular uptake in human HEK293 cells assessed as human OCT2-mediated drug transport at 2.5 uM after 4 mins by LC-MS/MS analysis relative to passive uptake; format: ADME, cell-based; conditions: HEK293 cells expressing human OCT2, read-out: FC
T1 sequence (O15244 whole entry): B2 chain

OCT1 (SLC22A1) = biological target: T2, OCT1 (SLC22A1) (Homo sapiens, UniProt O15245); assay: Cellular uptake in human HEK293 cells assessed as human OCT1-mediated drug transport at 2.5 uM after 4 mins by LC-MS/MS analysis relative to passive uptake; format: ADME, cell-based; conditions: HEK293 cells expressing human OCT1, read-out: FC
T2 sequence (O15245 whole entry): B1 chain

[1] = biological target: T3, Solute carrier family 22 member 2 (Homo sapiens, UniProt O15244); assay: Cellular uptake in human HEK293 cells assessed as human OCT2-mediated drug transport at 2.5 uM after 4 mins by LC-MS/MS analysis; format: ADME, cell-based; conditions: hek293, 4 min
T3 sequence (O15244 whole entry): B2 chain

[2] = biological target: T4, Solute carrier family 22 member 1 (Homo sapiens, UniProt O15245); assay: Cellular uptake in human HEK293 cells assessed as human OCT1-mediated drug transport at 2.5 uM after 4 mins by LC-MS/MS analysis; format: ADME, cell-based; conditions: hek293, 4 min
T4 sequence (O15245 whole entry): B1 chain

[3] = substrate: CC[N+](CC)(CC)CC; assay: cells, lysate or membranes named
[4] = substrate: CN/C(=N/CCSCc1nc[nH]c1C)NC#N; assay: cells, lysate or membranes named

Molecule | uptake ratio at 4 min, 2.5 µM (OCT2 (SLC22A2)) | uptake ratio at 4 min, 2.5 µM (OCT1 (SLC22A1)) | Drug uptake [1] | Drug uptake [2] | Km [3] | Km [4]
CNS(=O)(=O)Cc1ccc2[nH]cc(CCN(C)C)c2c1 | 3.3 | 15 | 94 pmol/mg | 620 pmol/mg |  | 
NCCOc1ccccc1-c1nc(C(N)=O)c(NC(N)=O)s1 | 1.3 | 13 | 40 pmol/mg | 796 pmol/mg |  | 
NCCCOc1ccccc1-c1nc(C(N)=O)c(NC(N)=O)s1 | 1.5 | 14 | 23 pmol/mg | 739 pmol/mg |  | 
NC(=O)Nc1sc(-c2ccccc2O[C@H]2CCNC2)cc1C(N)=O | 1.9 | 26 | 37 pmol/mg | 1047 pmol/mg |  | 
NC(=O)Nc1sc(-c2ccccc2O[C@@H]2CCNC2)cc1C(N)=O | 1.1 | 15 | 6.6 pmol/mg | 586 pmol/mg |  | 
NC(=O)Nc1sc(-c2ccccc2OC2CCNCC2)cc1C(N)=O | 1.8 | 17 | 35 pmol/mg | 821 pmol/mg |  | 
NC(=O)Nc1sc(-c2ccccc2OC2CNC2)cc1C(N)=O | 2.2 | 11 | 63 pmol/mg | 641 pmol/mg |  | 
NC(=O)Nc1sc(-c2cccc(OC3CCNC3)c2)cc1C(N)=O (racemic) | 1.6 | 68 | 21 pmol/mg | 1352 pmol/mg |  | 
C[N+]1(C)CCC(Oc2ccccc2-c2cc(C(N)=O)c(NC(N)=O)s2)C1 (racemic) | 4.3 | 53 | 46 pmol/mg | 903 pmol/mg |  | 
N#Cc1ccc(OC2CCNC2)c(-c2cc(C(N)=O)c(NC(N)=O)s2)c1 (racemic) | 1.6 | 39 | 22 pmol/mg | 1653 pmol/mg |  | 
NC(=O)Nc1sc(-c2ccc(OC3CCNC3)cc2)cc1C(N)=O (racemic) | 1.4 | 73 | 8.5 pmol/mg | 1493 pmol/mg |  | 
CC(C)(C)NCC(O)c1ccc(O)c(CO)c1 (centres undefined) [ALBUTEROL] | 15 | 11 | 270 pmol/mg | 58 pmol/mg |  | 
N=C(N)NC(=O)c1nc(Cl)c(N)nc1N [AMILORIDE] | 74 | 76 | 1660 pmol/mg | 1430 pmol/mg |  | 
CN/C(=N/CCSCc1nc[nH]c1C)NC#N [CIMETIDINE] | 15 | 6.5 | 270 pmol/mg | 65 pmol/mg |  | 
CN(C)C(=N)N=C(N)N [METFORMIN] |  |  | 110 pmol/mg | 5.4 pmol/mg |  | 
CC[N+](C)(CC)CCOC(=O)C(O)(c1ccccc1)C1CCCCC1 (centres undefined) [OXYPHENONIUM] | 14 | 25 | 230 pmol/mg | 640 pmol/mg |  | 
[H]/N=C(/N)N/C(=N/[H])NCCc1ccccc1 [PHENFORMIN] | > 35 | > 39 | 450 pmol/mg | 570 pmol/mg |  | 
CCC(NC(C)C)C(O)c1ccc(O)c2[nH]c(=O)ccc12 (centres undefined) [PROCATEROL] | 1.9 | 11 | 14 pmol/mg | 140 pmol/mg |  | 
CNC(=C[N+](=O)[O-])NCCSCc1ccc(CN(C)C)o1 [RANITIDINE] | 1.6 | 18 | 22 pmol/mg | 600 pmol/mg |  | 
C[N+]1(C)[C@@H]2C[C@@H](OC(=O)C(O)(c3cccs3)c3cccs3)C[C@H]1[C@@H]1O[C@@H]12 [TIOTROPIUM] | 39 | 75 | 460 pmol/mg | 820 pmol/mg |  | 
O=C(NCCNCC(O)COc1ccc(O)cc1)N1CCOCC1 (centres undefined) [XAMOTEROL] | 1.6 | 43 | 5.2 pmol/mg | 230 pmol/mg |  | 
B1 |  |  |  |  | 140 µM | 
B2 |  |  |  |  |  | 60 µM
